According to patent publication US10441597B2, “Ciclesonide for the treatment of airway disease in horses” (Boehringer Ingelheim Vetmedica GmbH, priority 2012, dated 2019):
“Also recorded” adds a separate entry of the source.

How the values were obtained:
RAO horses [1] = assay: Moldy hay challenge study in RAO horses: lung function variables (transpulmonary pressure, lung resistance, lung elastance); format: in vivo, horse; settings: for Difference in lung function variables versus dexamethasone group: after 7 or 14 days; for Efficacy relative to dexamethasone measured in lung function variables and clinical score: moldy hay challenge model, RESPIMAT inhaler with Equine Inhaler device, examples 1 and 3
Description: (§1) The commercially available […]® is used in the study.

RAO horses [2] = assay: Moldy hay challenge study in RAO horses: clinical score (breathing effort score, weighted clinical score); format: in vivo, horse
Description: as §1

[3] = test system: segmented neutrophils and lymphocytes; assay: Moldy hay challenge study in RAO horses: segmented neutrophil and lymphocyte counts; format: in vivo, horse; settings: for Lymphocytes / Segmented neutrophils: nozzle B, n=7 mean
Description: as §1
The segmented neutrophil counts and the lymphocyte counts are determined in the studies above: ciclesonide treatment versus dexamethasone treatment.

IAD horse = assay: Impulse oscillometry lung function in one IAD horse (4th ciclesonide study); format: in vivo; settings: 2700 μg ciclesonide twice daily for 14 days
Description: Ciclesonide is investigated in a baseline controlled, blinded study examining one (1) IAD horse. […] Lung function variables using the impulse oscillometry system (respiratory resistance (Rrs) and reactance (Xrs) are examined during the study.

cortisol levels = settings: humans; after aerosol administration/inhalation; cited from earlier work
serum cortisol = assay: Moldy hay challenge study in RAO horses: serum cortisol; settings: for Serum cortisol levels: any measured time point
[4] = Concentration of ciclesonide and metabolite in equine plasma (HPLC-MS/MS); settings: for Ciclesonide concentration in equine plasma: 2nd ciclesonide study, n=8 mean
[5] = 1st ciclesonide study, ciclesonide 450/900/1800 μg/horse twice daily
[6] = 2nd ciclesonide study, ciclesonide 1687.5 B/2700 A/2700 B μg twice daily
[7] = 3rd ciclesonide study, ciclesonide groups
[8] = D 0, 2700 μg ciclesonide/horse twice daily inhaled 14 days, 3rd ciclesonide study
[9] = D 0, 3712.5 μg ciclesonide/horse once daily in the evening inhaled 14 days, 3rd ciclesonide study
[10] = D 0, 3712.5 μg ciclesonide/horse once daily in the morning inhaled 14 days, 3rd ciclesonide study
[11] = D 14, 2700 μg ciclesonide/horse twice daily inhaled 14 days, 3rd ciclesonide study
[12] = D 14, 3712.5 μg ciclesonide/horse once daily in the evening inhaled 14 days, 3rd ciclesonide study
[13] = D 14, 3712.5 μg ciclesonide/horse once daily in the morning inhaled 14 days, 3rd ciclesonide study
[14] = D 21, 2700 μg ciclesonide/horse twice daily inhaled 14 days, 3rd ciclesonide study
[15] = D 21, 3712.5 μg ciclesonide/horse once daily in the evening inhaled 14 days, 3rd ciclesonide study
[16] = D 21, 3712.5 μg ciclesonide/horse once daily in the morning inhaled 14 days, 3rd ciclesonide study
[17] = frequencies 0.2 to 2 Hz, in contrast to pretreatment values

CC(C)C(=O)OCC(=O)[C@@]12O[C@H](C3CCCCC3)O[C@@H]1C[C@H]1[C@@H]3CCC4=CC(=O)C=C[C@]4(C)[C@H]3[C@@H](O)C[C@@]12C [ciclesonide, (11β,16α)-16,17-[[(R)-Cyclohexylmethylene]bis(oxy)]-11-hydroxy-21-(2-methyl-1-oxopropoxy)pregna-1,4-diene-3,20-dione]
ΔPL and EL compared to pretreatment values (RAO horses [1]; 1st ciclesonide study, ciclesonide 1800 μg/horse twice daily inhaled (only the highest dose), after 14 days, p=0.0005 and p=0.0004): statistically significant reduction
Difference in ΔPL and EL versus dexamethasone group (RAO horses [1]; 1st ciclesonide study, ciclesonide 1800 μg/horse twice daily, after 14 days): no significant difference
All lung function variables compared to pretreatment values (RAO horses [1]; 2nd ciclesonide study, all ciclesonide groups (1687.5 μg nozzle B/2700 μg nozzle A/2700 μg nozzle B twice daily), after 14 days, p=0.0009 to p<0.0001): significantly reduced
Difference in lung function variables versus dexamethasone group (RAO horses [1]; 2nd ciclesonide study, all ciclesonide groups): no significant difference
Difference in lung function variables (ΔPL, RL) versus placebo group (RAO horses [1]; 3rd ciclesonide study, all ciclesonide groups, after 14 days, p<0.0001 (2700 μg, 3712.5 μg evening), p=0.0005 ΔPL / p=0.0003 RL (3712.5 μg morning)): significant difference
Change in ΔPL compared to pretreatment values (RAO horses [1]; 3rd ciclesonide study, ciclesonide 2700 μg twice daily, after 7 days, p<0.0001): significantly reduced
ΔPL and RL compared to pretreatment values (RAO horses [1]; 3rd ciclesonide study, ciclesonide 2700 μg twice daily, after 14 days, p<0.0001): significantly reduced
Reduction of ΔPL and RL compared to pretreatment values (RAO horses [1]; 3rd ciclesonide study, ciclesonide 2700 μg, after 7 days, p<0.0001): statistically significant
Reduction of RL compared to pretreatment values (RAO horses [1]; 3rd ciclesonide study, ciclesonide 2700 μg, after 7 days, p=0.0002): statistically significant
Change in ΔPL compared to pretreatment values (RAO horses [1]; 3rd ciclesonide study, ciclesonide 3712.5 μg once daily in the evening, after 7 days, p=0.001): significantly reduced
RL compared to pretreatment values (RAO horses [1]; 3rd ciclesonide study, ciclesonide 3712.5n (once daily in the evening), after 14 days, p=0.0001): significantly reduced
Lung function variables compared to pretreatment values and to placebo group (RAO horses [1]; 3rd ciclesonide study, ciclesonide treatment groups, after 14 days): significantly reduced
Efficacy relative to dexamethasone measured in lung function variables and clinical score (RAO horses [1]): comparable efficacy
Breathing effort score (RAO horses [2]; 1st ciclesonide study, ciclesonide 450/900/1800 μg/horse twice daily, any measured time point): no significant changes
Weighted clinical score compared to pretreatment values (RAO horses [2]; 2nd ciclesonide study, all three ciclesonide groups, after 14 days, p=0.0001 to p<0.0001): significantly reduced
Difference in weighted clinical score versus dexamethasone group (RAO horses [2]; 2nd ciclesonide study, ciclesonide treatment groups, after 14 days): no significant difference
Weighted clinical score compared to pretreatment values (RAO horses [2]; 3rd ciclesonide study, ciclesonide 2700 μg twice daily, after 7 and 14 days, p=0.0001 (7 days), p=0.0003 (14 days)): significantly reduced
Difference in weighted clinical score versus placebo group (RAO horses [2]; 3rd ciclesonide study, ciclesonide treatment groups, after 14 days, p=0.0002 (2700 μg, 3712.5 μg evening), p=0.0006 (3712.5 μg morning)): significant difference
Counts of lymphocytes after administration [3, 5]: no change
Counts of segmented neutrophils after administration [3, 5]: no or minor increase
Counts of lymphocytes after administration [3, 6]: no change
Counts of segmented neutrophils after administration [3, 6]: no or minor increase
Counts of lymphocytes after administration [3, 7]: no change
Counts of segmented neutrophils after administration [3, 7]: no or minor increase
Lymphocytes [3, 8]: 2.55e+09 L⁻¹
Segmented neutrophils [3, 8]: 3.97e+09 L⁻¹
Lymphocytes [3, 9]: 2.55e+09 L⁻¹
Segmented neutrophils [3, 9]: 3.73e+09 L⁻¹
Lymphocytes [3, 10]: 2.21e+09 L⁻¹
Segmented neutrophils [3, 10]: 4.37e+09 L⁻¹
Lymphocytes [3, 11]: 2.54e+09 L⁻¹
Segmented neutrophils [3, 11]: 4.57e+09 L⁻¹
Lymphocytes [3, 12]: 2.43e+09 L⁻¹
Segmented neutrophils [3, 12]: 4.37e+09 L⁻¹
Lymphocytes [3, 13]: 2.48e+09 L⁻¹
Segmented neutrophils [3, 13]: 4.45e+09 L⁻¹
Lymphocytes [3, 14]: 2.49e+09 L⁻¹
Segmented neutrophils [3, 14]: 3.47e+09 L⁻¹
Lymphocytes [3, 15]: 2.48e+09 L⁻¹
Segmented neutrophils [3, 15]: 3.41e+09 L⁻¹
Lymphocytes [3, 16]: 2.66e+09 L⁻¹
Segmented neutrophils [3, 16]: 3.75e+09 L⁻¹
Alteration in the immune system measured by neutrophilia and lymphopenia ([3]; ciclesonide, treatment for two weeks with different dose levels, 1st and 2nd ciclesonide studies (Table 2)): no alteration; also recorded: not observed
Mean respiratory reactance in inspiration versus expiration (IAD horse; [17]): not different
Mean respiratory resistance in inspiration versus expiration (IAD horse; [17]): not different
Mean respiratory resistance (Rrs) compared to pretreatment values (IAD horse; frequencies 0.2 to 20 Hz, mean of three measurements): decreased
Mean respiratory reactance (Xrs) compared to pretreatment values (IAD horse; frequencies 5 to 10 Hz, mean of three measurements): decreased
Measured cortisol levels (cortisol levels): no or clinically not relevant cortisol suppression
Serum cortisol levels (serum cortisol; 1st ciclesonide study, any ciclesonide group (450/900/1800 μg/horse twice daily)): no significant reduction
Serum cortisol levels (serum cortisol; 2nd ciclesonide study, any ciclesonide group (1687.5 B/2700 A/2700 B μg twice daily)): no significant reduction
Serum cortisol levels (serum cortisol; 3rd ciclesonide study, any ciclesonide group (2700 μg twice daily/3712.5 μg morning/3712.5 μg evening)): no significant reduction
Cortisol level compared to values prior to treatment (serum cortisol; after administration of the highest ciclesonide dose, example 3): does not change significantly
Serum cortisol level of horses (serum cortisol; ciclesonide, treatment for two weeks with different dose levels, Examples 2-3): no decrease
Ciclesonide concentration in equine plasma ([4]; day 1, 0 min, ciclesonide 2700 μg nozzle B twice daily inhaled): <0.500 nmol/L
Ciclesonide concentration in equine plasma ([4]; day 1, 1 h, ciclesonide 2700 μg nozzle B twice daily inhaled): <0.500 nmol/L
Ciclesonide concentration in equine plasma ([4]; day 1, 2 h, ciclesonide 1687.5 μg nozzle B twice daily inhaled): <0.500 nmol/L
Ciclesonide concentration in equine plasma ([4]; day 1, 2 h, ciclesonide 2700 μg nozzle B twice daily inhaled): <0.500 nmol/L
Ciclesonide concentration in equine plasma ([4]; day 1, 4 h, ciclesonide 1687.5 μg nozzle B twice daily inhaled): <0.500 nmol/L
Ciclesonide concentration in equine plasma ([4]; day 1, 4 h, ciclesonide 2700 μg nozzle B twice daily inhaled): <0.500 nmol/L
Ciclesonide concentration in equine plasma ([4]; day 11, 0 min, ciclesonide 2700 μg nozzle A twice daily inhaled): <0.500 nmol/L
Ciclesonide concentration in equine plasma ([4]; day 11, 0 min, ciclesonide 2700 μg nozzle B twice daily inhaled): <0.500 nmol/L
Ciclesonide concentration in equine plasma ([4]; day 11, 1 h, ciclesonide 2700 μg nozzle A twice daily inhaled): <0.500 nmol/L
Ciclesonide concentration in equine plasma ([4]; day 11, 1 h, ciclesonide 2700 μg nozzle B twice daily inhaled): <0.500 nmol/L
Ciclesonide concentration in equine plasma ([4]; day 11, 2 h, ciclesonide 2700 μg nozzle A twice daily inhaled): <0.500 nmol/L
Ciclesonide concentration in equine plasma ([4]; day 11, 2 h, ciclesonide 2700 μg nozzle B twice daily inhaled): <0.500 nmol/L
Ciclesonide concentration in equine plasma ([4]; day 11, 4 h, ciclesonide 2700 μg nozzle A twice daily inhaled): <0.500 nmol/L
Ciclesonide concentration in equine plasma ([4]; day 11, 4 h, ciclesonide 2700 μg nozzle B twice daily inhaled): <0.500 nmol/L
Conversion of ciclesonide into the effective molecule C21-C21-desisobutyrylciclesonide ([4]; in horses, example 5): can be converted

CCCC1O[C@@H]2C[C@H]3[C@@H]4CCC5=CC(=O)C=C[C@]5(C)[C@H]4[C@@H](O)C[C@]3(C)[C@]2(C(=O)CO)O1 (stereo partly shown) [budesonide]
All lung function variables compared to pretreatment values (RAO horses [1]; Budesonide study, budesonide 1800 μg/horse ex RESPIMAT twice daily inhaled, after 14 days, p≤0.0001): significantly reduced
Difference in lung function variables versus dexamethasone group (RAO horses [1]; Budesonide study, budesonide 1800 μg/horse twice daily): no significant difference
Efficacy relative to dexamethasone measured in lung function variables and clinical score (RAO horses [1]): comparable efficacy
Clinical score compared to pretreatment values (RAO horses [2]; Budesonide study, all three budesonide groups (450/900/1800 μg/horse twice daily), after 7 and 14 days, p=0.002 to p<0.0001): significantly reduced
Difference in clinical score versus dexamethasone group (RAO horses [2]; Budesonide study, budesonide 900 and 1800 μg/horse twice daily, after 7 and 14 days): no significant difference
